Patent publication US20240082228A1, “SARS-COV-2 THERAPEUTICS” (priority 2021, published 2024)
Several values for one entry are separate records, joined by “and”; a condition that tells them apart may be missing. Identical values can stand only once. Like-named read-outs stand apart in the source and are kept apart here.

Assays:
SARS-CoV-2 [1] = type: cell-based; details: HEK293T cells stably expressing ACE2
HEK293T-ACE2 cells = details: up to 10 mM compound
[2] = molecular target: benzodiazepine binding site of human GABAA receptors containing either an α1, α2, α3 or α5 subunit; details: read-out: affinity; cited from earlier work
GABAA receptors = details: cited from earlier work
[3] = for Average Cell Number (1 uM) / Cell Number (1 uM) / Normalized Cell Number (1 uM): compound at 1 uM; for Average Cell Number (1 uM) / Average Cell Number (5 uM): average of normalized cell number, n=3, relative to DMSO; for Cell Number (1 uM) / Normalized Cell Number (1 uM) / Cell Number (5 uM) / Normalized Cell Number (5 uM): single replicate; for Cell Number (1 uM) / Cell Number (5 uM): raw cell count; for Normalized Cell Number (1 uM) / Normalized Cell Number (5 uM): relative to negative control DMSO; for Average Cell Number (5 uM) / Cell Number (5 uM) / Normalized Cell Number (5 uM): compound at 5 uM
SARS-CoV-2 [4] = assay: microbe, parasite or virus in culture; type: cell-based; details: for activity at 1 µM: Severe acute respiratory syndrome coronavirus 2, 1 uM, read-out: Normalized Infection (1 uM); for activity at 5 µM: Severe acute respiratory syndrome coronavirus 2, 5 uM, read-out: Normalized Infection (5 uM); for HIT: overall, 1 or 5 uM
[5] = 1 uM, average log2FC infection (n=3) relative to DMSO
[6] = 5 uM, average log2FC infection (n=3) relative to DMSO
[7] = single replicate, relative to negative control DMSO
[8] = 1 uM, single replicate, relative to negative control DMSO
[9] = 5 uM, single replicate, relative to negative control DMSO

| SMILES | Toxic (1 uM) [3] | Average Cell Number (1 uM) [3] | Cell Number (1 uM) [3] | Normalized Cell Number (1 uM) [3] | Average Cell Number (5 uM) [3] | Cell Number (5 uM) [3] | Normalized Cell Number (5 uM) [3] | HIT (2 Std, 1 uM) (SARS-CoV-2 [4]; 1 uM) | Average Infection (1 uM) (SARS-CoV-2 [4]; [5]) | HIT (2 Stdv, 5 uM) (SARS-CoV-2 [4]; 5 uM) | Average Infection (5 uM) (SARS-CoV-2 [4]; [6]) | activity at 1 µM (SARS-CoV-2 [4]; [7]) [%] | activity at 5 µM (SARS-CoV-2 [4]; [7]) [%] | HIT (SARS-CoV-2 [4]) | Toxic (5 uM) [3] | further results |
| --- | --- | --- | --- | --- | --- | --- | --- | --- | --- | --- | --- | --- | --- | --- | --- | --- |
| CN[C@@H](C)C(=O)N[C@H]1CCS[C@H]2CC(C)(C)[C@@H](C(=O)N[C@H]3c4ccccc4C[C@H]3OCC#CC#CCO[C@@H]3Cc4ccccc4[C@@H]3NC(=O)[C@H]3N4C(=O)[C@@H](NC(=O)[C@H](C)NC)CCS[C@H]4CC3(C)C)N2C1=O [Ciapavir] | – | – | – | – | – | – | – | – | – | – | – | – | – | – | – | antiviral activity (SARS-CoV-2 [1]): excellent activity; cytotoxicity (HEK293T-ACE2 cells): no observable cytotoxicity |
| CN[C@@H](C)C(=O)N[C@H](C(=O)N1CCC[C@H]1C(=O)N[C@H]1c2ccccc2C[C@H]1OCC#CC#CCO[C@@H]1Cc2ccccc2[C@@H]1NC(=O)[C@@H]1CCCN1C(=O)[C@@H](NC(=O)[C@H](C)NC)C1CCCCC1)C1CCCCC1 [AZD5582] | – | – | – | – | – | – | – | – | – | – | – | – | – | – | – | antiviral activity (SARS-CoV-2 [1]): excellent activity; cytotoxicity (HEK293T-ACE2 cells): no observable cytotoxicity |
| CC(C)CCC(=O)CC1c2ccccc2C(=O)N1c1ccc2ccc(Cl)nc2n1 (stereo not shown) [Pagoclone] | – | – | – | – | – | – | – | – | – | – | – | – | – | – | – | Ki [2]: 0.7 to 9.1 nM; efficacy at α1-, α2- and α5-containing GABAA receptors (GABAA receptors; α1-, α2- and α5-containing): partial agonist; efficacy at receptors containing an α3 subunit (GABAA receptors; α3 subunit): full agonist |
| CS(=O)(=O)N1CCc2c(-c3cnc(N)nc3)nc(N3CCOCC3)nc21 [CH5132799, ch5132799] | 0 (non-toxic (Normalized Cell number>0.65) | 0.6597 | 4526 and 3593 and 3479 | 0.7724 and 0.6131 and 0.5937 | 0.5239 | 3141 and 3289 and 2884 | 0.53 and 0.555 and 0.4867 | HIT | −1.059 | HIT | −3.565 | 42.1 | 8.27 | Yes | – | – |
| CC(C)C[C@@H](NC(=O)[C@H](Cc1ccccc1)NC(=O)CNC(=O)[C@@H](C)NC(=O)[C@@H](N)Cc1ccc(O)cc1)C(=O)O [DADLE, L-Tyrosyl-D-alanylglycyl-L-phenylalanyl-D-leucine] | 0 (non-toxic (Normalized Cell number>0.65) | 0.7534 | 4511 and 4466 and 4268 | 0.7698 and 0.7621 and 0.7283 | 0.9869 | 5991 and 5664 and 5891 | 1.011 and 0.9558 and 0.9941 | HIT | – | – | – | – | – | Yes | 0 (non-toxic (Normalized Cell number>0.65) | Average Infection (1 uM) (SARS-CoV-2 [4]): −0.6223; Average Infection (5 uM) (SARS-CoV-2 [4]): −0.2501; % Infection (1 uM) (SARS-CoV-2 [4]; 1 uM, single replicate of triplicate): 17.22% and 16.52% and 17.46%; Normalized Infection (1 uM) (SARS-CoV-2 [4]; [8]): 0.6557 and 0.6291 and 0.6645; log2FC Infection (1 uM) (SARS-CoV-2 [4]; [8]): −0.6088 and −0.6686 and −0.5896; % Infection (5 uM) (SARS-CoV-2 [4]; 5 uM, single replicate of triplicate): 13.22% and 10.81% and 15.19%; Normalized Infection (5 uM) (SARS-CoV-2 [4]; [9]): 0.8586 and 0.7017 and 0.9867; log2FC Infection (5 uM) (SARS-CoV-2 [4]; [9]): −0.22 and −0.511 and −0.01933 |
| O=C(O)CC[C@H]1CC[C@@](c2cc(F)ccc2F)(S(=O)(=O)c2ccc(Cl)cc2)CC1 [MK-0752, mk-0752] | 0 (non-toxic (Normalized Cell number>0.65) | 0.6912 | 3905 and 4070 and 4177 | 0.6664 and 0.6945 and 0.7128 | 0.8746 | 5100 and 5130 and 5319 | 0.8606 and 0.8656 and 0.8975 | HIT | −0.4386 | – | −0.353 | 70.8 | – | Yes | 0 (non-toxic (Normalized Cell number>0.65) | – |
| Nc1cc(C(F)(F)F)c(-c2nc(N3CCOCC3)nc(N3CCOCC3)n2)cn1 [Bimiralisib, bimiralisib] | 0 (non-toxic (Normalized Cell number>0.65) | 0.6927 | 3839 and 4405 and 3934 | 0.6551 and 0.7517 and 0.6713 | 0.4637 | 2795 and 2791 and 2658 | 0.4716 and 0.471 and 0.4485 | HIT | −1.45 | HIT | −4.123 | – | 5.11 | Yes | – | – |
| C#C[C@]1(O)CC[C@H]2[C@@H]3CCC4=CC(=O)CC[C@@H]4[C@H]3C(=C)C[C@@]21CC [Etonogestrel, etonogestrel] | 0 (non-toxic (Normalized Cell number>0.65) | 0.734 | 4255 and 4398 and 4251 | 0.7261 and 0.7505 and 0.7254 | 0.5829 | – | – | HIT | −0.4065 | HIT | −1.187 | 72 | – | Yes | – | – |
| C[C@@H]1CN(Cc2ccc(F)cc2)[C@@H](C)CN1C(=O)c1cc2c(C(=O)C(=O)N(C)C)cn(C)c2cc1Cl [SCIO 469, talmapimod] | 0 (non-toxic (Normalized Cell number>0.65) | 0.7439 | 3987 and 4564 and 4526 | 0.6804 and 0.7788 and 0.7724 | 0.95 | 5672 and 5345 and 5872 | 0.9571 and 0.9019 and 0.9909 | HIT | −1.039 | HIT | −0.8454 | 47.9 | 57.5 | Yes | 0 (non-toxic (Normalized Cell number>0.65) | – |
| CN(C)[C@@H]1C(O)=C(C(N)=O)C(=O)[C@@]2(O)C(O)=C3C(=O)c4c(O)cccc4[C@@](C)(O)[C@H]3[C@H](O)[C@@H]12 [Oxytetracycline, oxytetracycline] | 0 (non-toxic (Normalized Cell number>0.65) | 0.8352 | 5031 and 4848 and 4803 | 0.8585 and 0.8273 and 0.8196 | 0.976 | 6014 and 5768 and 5570 | 1.015 and 0.9733 and 0.9399 | HIT | −0.4729 | – | −0.1642 | 83.8 | – | Yes | 0 (non-toxic (Normalized Cell number>0.65) | – |
| C[N+]12CCC(CC1)C(OC(=O)C(O)(c1ccccc1)c1ccccc1)C2 (stereo not shown) [Clidinium, clidinium] | 0 (non-toxic (Normalized Cell number>0.65) | 0.6841 | 3871 and 4256 and 3900 | 0.6606 and 0.7263 and 0.6655 | 0.9985 | 5211 and 6271 and 6270 | 0.8793 and 1.058 (2×) | HIT | – | – | – | – | – | Yes | 0 (non-toxic (Normalized Cell number>0.65) | Average Infection (1 uM) (SARS-CoV-2 [4]): −0.7651; Average Infection (5 uM) (SARS-CoV-2 [4]): −0.1069 |
| Cc1cncc(CN2CCC(=C3c4ccc(Cl)cc4CCc4cccnc43)CC2)c1 [Rupatadine, rupatadine] | 0 (non-toxic (Normalized Cell number>0.65) | 0.795 | 4468 and 4936 and 4572 | 0.7625 and 0.8423 and 0.7802 | 0.9184 | 5730 and 5462 and 5136 | 0.9669 and 0.9217 and 0.8667 | HIT | – | – | – | 51.5 | 88.1 | Yes | 0 (non-toxic (Normalized Cell number>0.65) | Average Infection (1 uM) (SARS-CoV-2 [4]): −0.7916; Average Infection (5 uM) (SARS-CoV-2 [4]): −0.09608 |
